# Measurements reported in PMC11170206, “A novel fatty acid mimetic with pan-PPAR partial agonist activity inhibits diet-induced obesity and metabolic dysfunction-associated steatotic liver disease” (Molecular Metabolism, 2024).
# Tests used:
# Type in all cases: cell-based
# PPARδ = molecular target: T1, PPARδ (Mus musculus, UniProt P35396); test: GAL4/UAS-luciferase reporter assay in transfected HEK293 cells, dose-response (partial agonist)
# T1 construct: gene Ppard; GAL4-mPPARδ
# T1 sequence (P35396 210-440 limits assumed): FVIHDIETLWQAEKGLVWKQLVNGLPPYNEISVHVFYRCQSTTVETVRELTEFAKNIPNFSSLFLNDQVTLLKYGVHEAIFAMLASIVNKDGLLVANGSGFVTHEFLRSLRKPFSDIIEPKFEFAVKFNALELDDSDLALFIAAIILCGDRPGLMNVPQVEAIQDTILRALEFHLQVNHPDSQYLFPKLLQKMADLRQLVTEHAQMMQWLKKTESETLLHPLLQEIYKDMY
# PPARγ = molecular target: T2, PPARγ (Mus musculus, UniProt P37238); test: as above
# T2 construct: gene Pparg; GAL4-mPPARγ
# T2 sequence (P37238 1-505): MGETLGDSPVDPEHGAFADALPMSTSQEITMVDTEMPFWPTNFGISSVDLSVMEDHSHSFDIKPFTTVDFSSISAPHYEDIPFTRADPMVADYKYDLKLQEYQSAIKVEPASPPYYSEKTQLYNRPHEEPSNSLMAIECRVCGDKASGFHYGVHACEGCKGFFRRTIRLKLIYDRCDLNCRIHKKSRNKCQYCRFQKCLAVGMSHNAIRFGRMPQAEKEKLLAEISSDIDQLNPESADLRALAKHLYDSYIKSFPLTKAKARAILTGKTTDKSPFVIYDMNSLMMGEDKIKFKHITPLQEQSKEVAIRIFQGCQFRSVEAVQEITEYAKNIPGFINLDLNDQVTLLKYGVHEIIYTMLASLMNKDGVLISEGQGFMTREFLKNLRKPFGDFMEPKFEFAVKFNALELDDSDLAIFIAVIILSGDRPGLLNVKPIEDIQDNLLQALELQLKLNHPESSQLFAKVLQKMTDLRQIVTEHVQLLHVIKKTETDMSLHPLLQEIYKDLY
# PPARα [1] = molecular target: T3, PPARα (Mus musculus, UniProt P23204); test: as above
# T3 construct: gene Ppara; GAL4-mPPARα
# T3 sequence (P23204 1-468): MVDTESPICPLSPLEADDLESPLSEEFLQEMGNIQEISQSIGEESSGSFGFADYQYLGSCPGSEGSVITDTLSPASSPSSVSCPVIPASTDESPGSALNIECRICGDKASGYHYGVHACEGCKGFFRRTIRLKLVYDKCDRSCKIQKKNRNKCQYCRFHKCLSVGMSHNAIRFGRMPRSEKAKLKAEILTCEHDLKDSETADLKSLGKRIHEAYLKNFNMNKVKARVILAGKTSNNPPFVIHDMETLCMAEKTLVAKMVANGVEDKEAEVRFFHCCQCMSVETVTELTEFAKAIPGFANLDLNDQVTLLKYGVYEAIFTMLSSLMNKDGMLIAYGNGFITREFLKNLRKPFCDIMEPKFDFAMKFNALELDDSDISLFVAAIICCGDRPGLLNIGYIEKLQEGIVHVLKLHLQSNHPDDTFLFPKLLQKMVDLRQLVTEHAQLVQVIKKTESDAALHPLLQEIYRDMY
# PPARα [2] = molecular target: T3, PPARα; test: GAL4/UAS-luciferase reporter assay in transfected HEK293 cells, positive control agonist
SMILES,EC50 (PPARδ),EC50 (PPARγ),EC50 (PPARα [1]),"GAL4/UAS-luciferase reporter assay in transfected HEK293 cells, positive control (PPARα [2])"
CCCCCCCCCCCCCCCc1cccc(OC(C)(C)C(=O)O)c1 [LDT409],1000 nM,100 nM,100 nM,–
Cc1cccc(Nc2cc(Cl)nc(SCC(=O)O)n2)c1C [WY14643],–,–,–,"full dose–response curve comparing LDT409 against positive controls for each mouse PPAR (WY, PPARα agonist;"
